Source: ChEMBL document CHEMBL1141846, “New verticillin and glisoprenin analogues from gliocladium catenulatum, a mycoparasite of aspergillus flavus sclerotia” (1999)

Columns and labels:
[1] = test system: Bacillus subtilis; assay: Antibacterial activity against Bacillus subtilis ATCC 6051 at 100 ug/disk by standard petri-plate assay; format: functional; settings: read-out: IZ
[2] = test system: Staphylococcus aureus; assay: Antibacterial activity against Staphylococcus aureus ATCC 14053 at 100 ug/disk by standard petri-plate assay; format: functional; settings: read-out: IZ
[3] = test system: Bacillus subtilis; assay: Antibacterial activity against Bacillus subtilis ATCC 6051 at 50 ug/disk by standard petri-plate assay; format: functional, organism-based
[4] = test system: Staphylococcus aureus; assay: Antibacterial activity against Staphylococcus aureus ATCC 14053 at 50 ug/disk by standard petri-plate assay; format: functional, organism-based

Compound | zone of inhibition at 100 µg/disc [1] [mm] | zone of inhibition at 100 µg/disc [2] [mm] | inhibition zone (IZ) [3] [mm] | inhibition zone (IZ) [4] [mm]
CC(O)[C@@]12SS[C@]3(C(=O)N1C)[C@@H](O)C1([C@@]45c6ccccc6N[C@@H]4N4C(=O)[C@]6(C(C)O)SS[C@]4(C(=O)N6C)[C@H]5O)c4ccccc4N[C@@H]1N3C2=O (stereo partly drawn) [VERTICILLIN D] | 23 | 11 |  | 
CC(=O)[C@@]12SS[C@]3(C(=O)N1C)[C@@H](O)[C@]1([C@@]45c6ccccc6N[C@@H]4N4C(=O)[C@]6(C(C)=O)SS[C@]4(C(=O)N6C)[C@H]5O)c4ccccc4N[C@@H]1N3C2=O [VERTICILLIN E] | 23 | 11 |  | 
CC(=O)[C@@]12SS[C@]3(C(=O)N1C)[C@@H](O)[C@]1([C@@]45c6ccccc6N[C@@H]4N4C(=O)[C@]6(C(C)O)SS[C@]4(C(=O)N6C)[C@H]5O)c4ccccc4N[C@@H]1N3C2=O (stereo partly drawn) [VERTICILLIN F] | 23 | 11 |  | 
GENTAMICIN SULFATE |  |  | 25 | 25
